# Assay results taken from ChEMBL document CHEMBL4330147, “Adiponectin-Secretion-Promoting Phenylethylchromones from the Agarwood of Aquilaria malaccensis” (J Nat Prod, 2019).
# Calls of active or inactive are those of the source. The calls are words filed in the database; no cut-off is given here.
# Experiments:
# [1] = species on record: Homo sapiens; experiment: Induction of adipogenesis in human bone marrow-derived mesenchymal stem cells assessed as increase in adiponectin production at 30 uM measured on day 5 in presence of IDX by ELISA; assay type: functional
# [2] = biological target: T1, Glucocorticoid receptor (Homo sapiens) (UniProt P04150); experiment: Binding affinity to GR (unknown origin) at 30 uM by TR-FRET assay
# T1 sequence (whole entry): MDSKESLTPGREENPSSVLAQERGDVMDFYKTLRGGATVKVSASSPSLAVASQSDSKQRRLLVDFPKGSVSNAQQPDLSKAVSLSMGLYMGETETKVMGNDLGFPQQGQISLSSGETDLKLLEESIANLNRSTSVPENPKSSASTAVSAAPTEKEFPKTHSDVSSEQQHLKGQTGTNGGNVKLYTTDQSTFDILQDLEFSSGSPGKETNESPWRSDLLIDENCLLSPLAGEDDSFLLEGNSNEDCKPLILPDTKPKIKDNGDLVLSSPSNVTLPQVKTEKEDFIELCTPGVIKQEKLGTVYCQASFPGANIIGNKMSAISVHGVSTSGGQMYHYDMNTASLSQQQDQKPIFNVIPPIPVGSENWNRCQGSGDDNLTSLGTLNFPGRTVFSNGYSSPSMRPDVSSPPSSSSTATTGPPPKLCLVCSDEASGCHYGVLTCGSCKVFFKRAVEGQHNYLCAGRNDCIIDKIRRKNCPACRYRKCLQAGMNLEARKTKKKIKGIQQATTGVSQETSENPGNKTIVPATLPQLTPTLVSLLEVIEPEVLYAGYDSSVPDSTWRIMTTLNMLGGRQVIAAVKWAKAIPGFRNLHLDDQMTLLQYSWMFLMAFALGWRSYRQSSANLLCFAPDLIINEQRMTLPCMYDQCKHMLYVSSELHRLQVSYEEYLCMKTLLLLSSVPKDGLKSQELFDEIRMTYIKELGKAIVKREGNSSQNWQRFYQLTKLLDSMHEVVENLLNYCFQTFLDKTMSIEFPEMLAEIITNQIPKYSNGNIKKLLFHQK
# [3] = cells; details: Homo sapiens, 120 h
# Description: Induction of adipogenesis in human bone marrow-derived mesenchymal stem cells assessed as increase in adiponectin production measured on day 5 in presence of IDX by ELISA
# [4] = biological target: T2, Peroxisome proliferator-activated receptor gamma (Homo sapiens) (UniProt P37231); experiment: Inhibition of labeled ligand binding to PPARgamma (unknown origin) at 30 uM by TR-FRET assay relative to control
# T2 sequence (whole entry): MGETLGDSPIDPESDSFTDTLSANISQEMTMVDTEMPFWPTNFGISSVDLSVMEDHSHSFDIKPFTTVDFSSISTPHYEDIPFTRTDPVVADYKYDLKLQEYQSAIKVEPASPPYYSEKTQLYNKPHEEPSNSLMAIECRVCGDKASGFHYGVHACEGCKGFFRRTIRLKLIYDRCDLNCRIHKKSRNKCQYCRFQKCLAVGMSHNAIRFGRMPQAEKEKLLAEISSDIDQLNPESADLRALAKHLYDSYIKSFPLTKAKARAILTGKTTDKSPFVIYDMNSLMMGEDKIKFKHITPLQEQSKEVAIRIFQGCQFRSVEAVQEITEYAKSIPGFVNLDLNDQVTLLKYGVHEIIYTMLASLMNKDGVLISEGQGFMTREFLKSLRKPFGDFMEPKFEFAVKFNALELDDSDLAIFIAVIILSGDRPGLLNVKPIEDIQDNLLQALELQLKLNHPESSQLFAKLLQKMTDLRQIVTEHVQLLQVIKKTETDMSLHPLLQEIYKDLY
# [5] = biological target: T3, Peroxisome proliferator-activated receptor alpha (Homo sapiens) (UniProt Q07869); experiment: Binding affinity to PPARalpha (unknown origin) at 30 uM by TR-FRET assay
# T3 sequence (whole entry): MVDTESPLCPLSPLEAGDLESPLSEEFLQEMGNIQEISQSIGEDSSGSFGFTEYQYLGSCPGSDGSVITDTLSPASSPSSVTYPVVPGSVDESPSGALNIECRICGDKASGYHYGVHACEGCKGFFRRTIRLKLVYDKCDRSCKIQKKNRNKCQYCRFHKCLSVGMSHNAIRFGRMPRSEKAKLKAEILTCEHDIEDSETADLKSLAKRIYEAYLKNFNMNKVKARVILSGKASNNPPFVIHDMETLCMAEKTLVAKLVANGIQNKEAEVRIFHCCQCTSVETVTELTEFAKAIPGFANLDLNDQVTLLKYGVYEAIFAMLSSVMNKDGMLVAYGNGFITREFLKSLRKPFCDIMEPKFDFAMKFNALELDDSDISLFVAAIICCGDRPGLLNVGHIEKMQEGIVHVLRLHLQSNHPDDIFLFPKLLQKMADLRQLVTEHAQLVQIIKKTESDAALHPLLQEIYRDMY
# [6] = biological target: T2, Peroxisome proliferator-activated receptor gamma (Homo sapiens); experiment: (§1) Binding affinity to PPARgamma (unknown origin) by TR-FRET assay
# [7] = biological target: T4, Peroxisome proliferator-activated receptor gamma (Homo sapiens, UniProt P37231); experiment: as §1
# T4 sequence (P37231 whole entry): T2 sequence (whole entry)
# [8] = biological target: T5, Peroxisome proliferator-activated receptor delta (Homo sapiens) (UniProt Q03181); experiment: Binding affinity to PPARdelta (unknown origin) at 30 uM by TR-FRET assay
# T5 sequence (whole entry): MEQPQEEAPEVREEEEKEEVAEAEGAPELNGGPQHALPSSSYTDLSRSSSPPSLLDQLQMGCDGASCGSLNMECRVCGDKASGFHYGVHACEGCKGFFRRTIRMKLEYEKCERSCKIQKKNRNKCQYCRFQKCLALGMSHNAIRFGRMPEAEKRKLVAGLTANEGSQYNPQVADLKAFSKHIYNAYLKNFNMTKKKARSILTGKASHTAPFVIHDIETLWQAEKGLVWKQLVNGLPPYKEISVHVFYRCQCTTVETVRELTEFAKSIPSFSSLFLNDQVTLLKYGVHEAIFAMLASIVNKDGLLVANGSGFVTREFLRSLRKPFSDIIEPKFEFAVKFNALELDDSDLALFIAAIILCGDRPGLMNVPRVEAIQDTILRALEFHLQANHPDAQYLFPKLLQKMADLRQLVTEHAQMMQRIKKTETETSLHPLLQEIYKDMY
# [9] = biological target: T6, Oxysterols receptor LXR-alpha (Homo sapiens) (UniProt Q13133); experiment: Binding affinity to LXRalpha (unknown origin) at 30 uM by TR-FRET assay
# T6 sequence (whole entry): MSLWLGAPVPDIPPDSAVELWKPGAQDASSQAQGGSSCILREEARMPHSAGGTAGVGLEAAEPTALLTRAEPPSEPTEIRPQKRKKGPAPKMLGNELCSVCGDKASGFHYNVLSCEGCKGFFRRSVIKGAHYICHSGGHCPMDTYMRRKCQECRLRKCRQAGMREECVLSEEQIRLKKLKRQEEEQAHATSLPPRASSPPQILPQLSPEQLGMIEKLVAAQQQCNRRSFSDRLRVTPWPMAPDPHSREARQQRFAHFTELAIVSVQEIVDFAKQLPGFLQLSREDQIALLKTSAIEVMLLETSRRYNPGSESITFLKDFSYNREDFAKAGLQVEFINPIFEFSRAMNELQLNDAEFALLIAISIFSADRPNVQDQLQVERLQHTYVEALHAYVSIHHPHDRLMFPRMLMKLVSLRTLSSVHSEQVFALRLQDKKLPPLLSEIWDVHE
# [10] = Induction of adipogenesis in human bone marrow-derived mesenchymal stem cells assessed as increase in adiponectin production at 30 uM measured on day 5 in presence of IDX by ELISA relative to control; assay type: functional
# [11] = biological target: T2, Peroxisome proliferator-activated receptor gamma (Homo sapiens); experiment: Inhibition of labeled ligand binding to PPARgamma (unknown origin) at 60 uM by TR-FRET assay relative to control
# [12] = Induction of adipogenesis in human bone marrow-derived mesenchymal stem cells assessed as increase in adiponectin production at 60 uM measured on day 5 in presence of IDX by ELISA relative to pioglitazone; assay type: functional; details: 120 h
SMILES,Activity [1],EC50 [3] [µM],other results
COc1ccc2c(=O)cc(CCc3ccccc3)oc2c1,Active,20.3,Activity [2]: inactive; inhibition [4]: 50.3%; Activity [5]: inactive; Activity [6]: Dose-dependent effect; Ki [7]: 14.9 µM; Activity [8]: inactive; Activity [9]: inactive
O=c1cc(CCc2ccccc2)oc2cccc(O)c12,Active,–,–
O=c1cc(CCc2ccccc2)oc2c(O)cccc12,inactive,–,–
O=c1cc(CCc2ccccc2)oc2c(Cl)cc(O)cc12,Active,–,–
O=c1cc(CCc2ccccc2)oc2ccc(O)c(O)c12,Active,> 60,fold change (FC) [10]: 1.97; inhibition [11]: 41.1%; Emax at 60 µM [12]: 48%
COc1ccc2oc(CCc3ccccc3)cc(=O)c2c1O,Active,–,–
COc1ccc(Cl)cc1C(=O)NCCc1ccc(S(=O)(=O)NC(=O)NC2CCCCC2)cc1 [GLYBURIDE],–,2.95,Ki [7]: 0.66 µM
O=C1C=C(CCc2ccccc2)OC2C1[C@@H]1O[C@@H]1[C@H](O)[C@H]2O (relative stereo),Active,–,–
O=c1cc(CCc2ccccc2O)oc2ccccc12,inactive,–,–
